Measured values: patent US6593342B1, “Pharmaceutical compositions comprising 2-quinolones” (Laboratoire L. Lafon, priority 1998, dated 2003)

Legend:
[1] = test system: SW1088; experiment: MTT test, SW1088; assay type: cell-based; settings: Homo sapiens, 10^−5 M, 72 hours, control = 100%, mean ± SEM, read-out: average optical density (MTT), percentage relative to control
Method: (§1) The influence of the compounds of formulae (I) and (Ia) on non-clonogenic cells was evaluated with the aid of the MTT calorimetric test.
(§2) The principle of the MTT test is based on the mitochondrial reduction, by the metabolically active live cells, of the yellow-colored product MTT (3-(4,5-dimethylthiazol-2-yl)-2,5-diphenyltetrazolium bromide) to a blue-colored product, formazan. The amount of formazan thus obtained is directly proportional to the amount of live cells present in the culture well(s). This amount of formazan is measured by spectrophotometry.
(§3) The cell lines are maintained as a monolayer culture at 37° C. in stoppered culture dishes containing MEM 25 MM HEPES (Minimum Essential Medium) base medium. This medium is suited to the growth of a range of various mammalian diploid or primary cells. This medium is then supplemented with:
(§4) an amount of 5% of FCS (Foetal Calf Serum) decomplemented at 56° C. for 1 hour,
(§5) 0.6 mg/ml of L-glutamine,
(§6) 200 μg/ml of streptomycin,
(§7) The 12 human cancer cell lines which were used were obtained from the American Type Culture Collection (ATCC, Rockville, Md., USA). These 12 cell lines are:
SW1088 (code ATCC: HTB-12) which is an astrocytoma,
(§8) Experimentally: 100 μl of a cell suspension containing 20 000 to 50 000 (depending on the cell type used) cells/ml of culture medium are inoculated in 96-well flat-bottomed multi-well plates and are incubated at 37° C., under an atmosphere comprising 5% CO2 and 70% humidity. After incubation for 24 hours, the culture medium is replaced with 100 μl of fresh medium containing either the various test compounds at concentrations ranging from 10^−5 to 10^−10 M or the solvent used to dissolve the test products (control condition). After incubation for 72 hours under the above conditions, the culture medium is replaced with 100 μl of a yellowish solution of MTT dissolved at a rate of 1 mg/ml in RPMI 1640. The microplates are reincubated for 3 hours at 37° C. and are then centrifuged for 10 minutes at 400×g. The yellowish solution of MTT is removed and the blue formazan crystals formed in the cell are dissolved in 100 μl of DMSO. The microplates are then shaken for 5 minutes. The intensity of the resulting blue coloration, and thus of the conversion of the yellow product MTT into blue formazan by the cells that are still alive at the end of the experiment, is quantified by spectrophotometry using a Dynatech Immunoassay System machine at wavelengths of 570 nm and 630 nm corresponding, respectively, to the maximum absorption wavelengths of formazan and to the background noise. Software incorporated in the spectrophotometer calculates the average optical density values and the standard deviation (SD) and standard error of mean (SEM) values.
(§9) By way of example, the results of the average optical density, expressed as a percentage relative to the average optical density measured under the control condition (set equal to 100%), obtained at a concentration of 10^−5 M on the 12 abovementioned tumor cell lines are given in Table II.

[2] = test system: T-47D; experiment: MTT test, T-47D; assay type: cell-based; settings: Homo sapiens, T47D, 10^−5 M, 72 hours, control = 100%, mean ± SEM, read-out: average optical density (MTT), percentage relative to control
Method: as §1, §2, §3, §4, §5, §6, §7
(§10) T-47D (code ATCC: HTB-133) and MCF7 (code ATCC: HTB-22) which are two breast cancers,
as §8, §9

[3] = Determination of the maximum tolerated dose (MTD); settings: mouse, in vivo, ip; B6D2F1/Jico mice; single intraperitoneal administration, 2.5 to 160 mg/kg; survival over 14 days
Method: 3.—Determination of the Maximum Tolerated Dose (MTD):
The evaluation of the maximum tolerated dose was carried out on 4- to 6-week-old B6D2F1/Jico mice. The compounds were administered intraperitoneally at increasing doses graduating from 2.5 to 160 mg/kg. The value of the MTD (expressed in mg/kg) is determined from the observation of the survival rate of the animals over a 14-day period after a single administration of the product under consideration. The weight change of the animals is also monitored during this period. When the value of the MTD is greater than 160 mg/kg, the MTD value is likened to 160 mg/kg by default.
The results of the estimation of the maximum tolerated dose (MTD) are collated in the following table: […]

[4] = test system: MCF7; experiment: MTT test, MCF7; assay type: cell-based; settings: Homo sapiens, 10^−5 M, 72 hours, control = 100%, mean ± SEM, read-out: average optical density (MTT), percentage relative to control
Method: as §1, §2, §3, §4, §5, §6, §7, §10, §8, §9

[5] = test system: T24; experiment: MTT test, T24; assay type: cell-based; settings: Homo sapiens, T-24, 10^−5 M, 72 hours, control = 100%, mean ± SEM, read-out: average optical density (MTT), percentage relative to control
Method: as §1, §2, §3, §4, §5, §6, §7
(§11) J82 (code ATCC: HTB-1) and T24 (code ATCC: HTB-4) which are two bladder cancers,
as §8, §9

[6] = test system: A-427; experiment: MTT test, A-427; assay type: cell-based; settings: Homo sapiens, 10^−5 M, 72 hours, control = 100%, mean ± SEM, read-out: average optical density (MTT), percentage relative to control
Method: as §1, §2, §3, §4, §5, §6, §7
(§12) A549 (code ATCC: CCL-185) and A-427 (code ATCC: HTB-53) which are two non-small-cell lung cancers,
as §8, §9

[7] = test system: LoVo; experiment: MTT test, LoVo; assay type: cell-based; settings: Homo sapiens, 10^−5 M, 72 hours, control = 100%, mean ± SEM, read-out: average optical density (MTT), percentage relative to control
Method: as §1, §2, §3, §4, §5, §6, §7
(§13) HTC-15 (code ATCC: CCL-225) and LoVo (code ATCC: CCL-229) which are two colorectal cancers,
as §8, §9

[8] = test system: J82; experiment: MTT test, J82; assay type: cell-based; settings: Homo sapiens, 10^−5 M, 72 hours, control = 100%, mean ± SEM, read-out: average optical density (MTT), percentage relative to control
Method: as §1, §2, §3, §4, §5, §6, §7, §11, §8, §9

[9] = test system: PC-3; experiment: MTT test, PC-3; assay type: cell-based; settings: Homo sapiens, 10^−5 M, 72 hours, control = 100%, mean ± SEM, read-out: average optical density (MTT), percentage relative to control
Method: as §1, §2, §3, §4, §5, §6, §7
PC-3 (code ATCC: CRL-1435) which is a prostate cancer.
as §8, §9

[10] = test system: U-373MG; experiment: MTT test, U-373MG; assay type: cell-based; settings: Homo sapiens, U373 MG, 10^−5 M, 72 hours, control = 100%, mean ± SEM, read-out: average optical density (MTT), percentage relative to control
Method: as §1, §2, §3, §4, §5, §6, §7
(§14) U-373MG (code ATCC: HTB-17) and U-87MG (code ATCC: HTB-14) which are two glioblastomas,
as §8, §9

[11] = test system: HCT-15; experiment: MTT test, HCT-15; assay type: cell-based; settings: Homo sapiens, 10^−5 M, 72 hours, control = 100%, mean ± SEM, read-out: average optical density (MTT), percentage relative to control
Method: as §1, §2, §3, §4, §5, §6, §7, §13, §8, §9

[12] = test system: U-87MG; experiment: MTT test, U-87MG; assay type: cell-based; settings: Homo sapiens, 10^−5 M, 72 hours, control = 100%, mean ± SEM, read-out: average optical density (MTT), percentage relative to control
Method: as §1, §2, §3, §4, §5, §6, §7, §14, §8, §9

[13] = test system: A549; experiment: MTT test, A549; assay type: cell-based; settings: Homo sapiens, 10^−5 M, 72 hours, control = 100%, mean ± SEM, read-out: average optical density (MTT), percentage relative to control
Method: as §1, §2, §3, §4, §5, §6, §7, §12, §8, §9

SMILES	viability at 10 µM [1] [%]	viability at 10 µM [2] [%]	MTD at 14 day [3] [mg/kg]	viability at 10 µM [4] [%]	viability at 10 µM [5] [%]	viability at 10 µM [6] [%]	viability at 10 µM [7] [%]	viability at 10 µM [8] [%]	viability at 10 µM [9] [%]	viability at 10 µM [10] [%]	viability at 10 µM [11] [%]	viability at 10 µM [12] [%]	viability at 10 µM [13] [%]
CCOC(=O)Cn1c(=O)c(-c2ccc(OC)cc2)cc2c(OC)cc(OC)cc21 [CRL8314]	85.4 ± 2.5	114 ± 2.3	> 160	72.2 ± 2	61.9 ± 2.5	104 ± 3.1	82.9 ± 2.5	33.2 ± 1.2	88.6 ± 1.4	89.2 ± 2	116 ± 4.4	74.5 ± 3.4	85.2 ± 1.4
COc1ccc(-c2cc3c(OC)cc(OC)cc3n(CC(=O)O)c2=O)cc1 [CRL8317, 2-[5,7-Dimethoxy-3-(4-methoxyphenyl)-2-oxo-1,2-dihydro-1-quinolinyl]acetic Acid]	103 ± 2.3	95 ± 2.5	> 160	96 ± 2.1	91.4 ± 4.3	91.3 ± 2	86.8 ± 2.8	83.6 ± 1.8	97.9 ± 1.1	91.2 ± 1.9	104 ± 2.6	91 ± 4.1	94.7 ± 2.2
COC(=O)CCn1c(=O)c(-c2ccc(OC)cc2)cc2c(OC)cc(OC)cc21 [CRL8318]	75.2 ± 3	100 ± 3.9	> 160	105 ± 2.4	81.8 ± 1.4	74 ± 3	75.2 ± 2.3	72.8 ± 1.2	79.2 ± 2.8	89.9 ± 1.3	113 ± 1.7	78.1 ± 2.4	86.6 ± 2.5
COc1ccc(-c2cc3c(OC)cc(OC)cc3n(CCC(=O)O)c2=O)cc1 [CRL8319, 3-[5,7-Dimethoxy-3-(4-methoxyphenyl)-2-oxo-1,2-dihydro-1-quinolinyl]propanoic Acid]	89.8 ± 2.7	104 ± 2.5	> 160	102 ± 2	89.6 ± 2.1	79.1 ± 2.5	79.7 ± 2.7	80.9 ± 1	90.7 ± 3.6	102 ± 1.5	96.7 ± 1.6	115 ± 2.9	97.3 ± 1.2
Cn1c(=O)c(-c2ccc(O)cc2)cc2c(O)cc(O)cc21 [CRL8321, 5,7-Dihydroxy-3-(4-hydroxyphenyl)-1-methyl-1,2-dihydro-2-quinolinone]	97.2 ± 1.8	91.5 ± 1.2	> 160	96.6 ± 0.9	103 ± 1.7	107 ± 1.4	108 ± 1.1	88.6 ± 0.9	102 ± 3.1	97.1 ± 2.4	118 ± 1.6	96.5 ± 1.2	99.4 ± 1.3
COc1cc(OC)c2cc(-c3ccccc3)c(O)nc2c1 [CRL8330, 5,7-Dimethoxy-3-phenyl-1,2-dihydro-2-quinolinone]	73.3 ± 1.8	77.6 ± 3	> 160	87.2 ± 3	57.4 ± 2.3	59.8 ± 1	59.9 ± 4.2	70.5 ± 2.4	48.5 ± 2.1	75.5 ± 3.7	94.7 ± 2.1	86.6 ± 0.7	76.3 ± 2.4
COc1ccc(-c2cc3c(OC)ccc(OC)c3nc2O)cc1 [CRL8336, 5,8-Dimethoxy-3-(4-methoxyphenyl)-1,2-dihydro-2-quinolinone]	101 ± 4.3	96.2 ± 2.9	> 160	73.9 ± 0.7	88.2 ± 1.4	87.9 ± 3.1	92.6 ± 3.4	90.9 ± 0.9	91.7 ± 1.5	82.3 ± 1.6	93.1 ± 3.2	82.3 ± 1.8	114 ± 1.9
COc1cccc2cc(-c3ccccc3)c(O)nc12 [CRL8339, 8-Methoxy-3-phenyl-1,2-dihydro-2-quinolinone]	87.1 ± 2.6	81 ± 2.8	> 160	82.7 ± 3.5	87.4 ± 2	52.3 ± 2.3	74.4 ± 1.8	83.7 ± 0.6	84.3 ± 1.8	73.6 ± 1.8	65.5 ± 2.2	69.1 ± 2.1	49.6 ± 2.2
